Assay results reported in patent US10858335B2 (Rigel Pharmaceuticals, Inc., priority 2014, dated 2020).

Tested on: GDF8 signaling (p-SMAD-3 (Ser423/425))
Test: AlphaScreen SureFire SMAD3 (p-Ser423/425) assay, GDF8-stimulated cells (GDF pSMAD)
Format: cell-based
Settings: Mus musculus, MPC-11, MPC11; GDF8-stimulated; p-SMAD3 AlphaScreen; read-out: GDF pSMAD (MPC11) (inhibition of GDF8 signaling)

IC50 [nM] | Structure (SMILES)
9150 | Cc1cc(-c2ncccc2-c2ccn3c(C(=O)NCCCN4CCN(C)CC4)ncc3c2)ccc1F [compound 264, 7-(2-(4-Fluoro-3-methylphenyl)pyridin-3-yl)-N-(3-(4-methylpiperazin-1-yl)propyl)imidazo[1,5-a]pyridine-3-carboxamide]
299 | Nc1ncnc2ccc(-c3cccnc3-c3cccc(O)c3)cc12 [compound 456, 3-(3-(4-Aminoquinazolin-6-yl)pyridin-2-yl)phenol]
447 | Fc1ccc(-c2ncccc2-c2ccc3ncccc3n2)cc1Cl [compound 691, 2-(2-(3-Chloro-4-fluorophenyl)pyridin-3-yl)-1,5-naphthyridine]
510 | Cc1cc(-c2ncccc2-c2ccc3ncc(C(=O)NCCN4CCOCC4)n3c2)ccc1F [compound 585, 6-(2-(4-Fluoro-3-methylphenyl)pyridin-3-yl)-N-(2-morpholinoethyl)imidazo[1,2-a]pyridine-3-carboxamide]
2010 | Fc1ccc(-c2ncccc2-c2ccc3ncsc3c2)cc1 [compound 659, 6-(2-(4-Fluorophenyl)pyridin-3-yl)benzo[d]thiazole]
251 | Cc1cnc(-c2cc(Cl)ccc2F)c(-c2ccn3ncnc3c2)c1 [compound 866, 7-(2-(5-Chloro-2-fluorophenyl)-5-methylpyridin-3-yl)-[1,2,4]triazolo[1,5-a]pyridine]
1960 | C1=C(c2cccc(-c3ncccc3-c3cnc4[nH]ncc4c3)c2)CCC1 [Compound 170, 5-(2-(3-Cyclopentenylphenyl)pyridin-3-yl)-1H-pyrazolo[3,4-b]pyridine]
9760 | COCc1cnc(-c2ccc(F)c(C)c2)c(-c2ccc3nccnc3c2)c1 [compound 228, 6-(2-(4-Fluoro-3-methylphenyl)-5-(methoxymethyl)pyridin-3-yl)quinoxaline]
2610 | Cn1cnc2ccc(-c3cccnc3-c3ccc(F)cc3)cc2c1=O [compound 381, 6-(2-(4-Fluorophenyl)pyridin-3-yl)-3-methylquinazolin-4(3H)-one]
11900 | Cc1cc(-c2ncc(NC3CCCCC3O)cc2-c2ccc3nccnc3c2)ccc1F (stereo not drawn) [compound 243, 2-((6-(4-Fluoro-3-methylphenyl)-5-(quinoxalin-6-yl)pyridin-3-yl)amino)cyclohexan-1-ol]
1270 | Cc1cc(-c2ncccc2-c2ccn3c(C(=O)O)ncc3c2)ccc1F [compound 258, 7-(2-(4-Fluoro-3-methylphenyl)pyridin-3-yl)imidazo[1,5-a]pyridine-3-carboxylic acid]
1820 | Fc1ccc(Cl)cc1-c1ncccc1-c1ccc2nccnc2n1 [compound 742, 6-(2-(5-Chloro-2-fluorophenyl)pyridin-3-yl)pyrido[2,3-b]pyrazine]
663 | Cc1cc(-c2ncccc2-c2ccc3ncnn3c2)ccc1F [Compound 191, 6-(2-(4-Fluoro-3-methylphenyl)pyridin-3-yl)-[1,2,4]triazolo[1,5-a]pyridine]
5140 | Cc1cc(-c2ncc(Cl)cc2-c2ccc3[nH]ncc3c2)ccc1F [Compound 9, 5-(5-Chloro-2-(4-fluoro-3-methylphenyl)pyridin-3-yl)-1H-indazole]
661 | FC(F)(F)c1cccc(-c2ncccc2-c2ccn3nccc3n2)c1 [compound 913, 5-(2-(3-(Trifluoromethyl)phenyl)pyridin-3-yl)pyrazolo[1,5-a]pyrimidine]
83 | Nc1cnc(-c2cccc(C3CC3)c2)c(-c2ccc3ncsc3c2)c1 [Compound 19, 5-(Benzo[d]thiazol-6-yl)-6-(3-cyclopropylphenyl)pyridin-3-amine]
4880 | Cc1cc(-c2ncccc2-c2ccc3ncc(N(C)C)n3c2)ccc1F [compound 551, 6-(2-(4-Fluoro-3-methylphenyl)pyridin-3-yl)-N,N-dimethylimidazo[1,2-a]pyridin-3-amine]
11300 | Cc1cc(-c2ncccc2-c2ccc3c(cnn3C(=O)NCCN(C)C)c2)ccc1F [compound 633, N-(2-(Dimethylamino)ethyl)-5-(2-(4-fluoro-3-methylphenyl)pyridin-3-yl)-1H-indazole-1-carboxamide]
12400 | Cc1cc(-c2ncccc2-c2ccc3ncn(CCCN4CCN(C)CC4)c3c2)ccc1F [compound 253, 1-(3-(4-Methylpiperazin-1-yl)propyl)-6-(2-(4-fluoro-3-methylphenyl)pyridin-3-yl)-1H-benzo[d]imidazole]
9460 | Cc1cc(-c2ncc(CN3CCOCC3)cc2-c2ccc3nccnc3c2)ccc1F [compound 225, 4-((6-(4-Fluoro-3-methylphenyl)-5-(quinoxalin-6-yl)pyridin-3-yl)methyl)morpholine]

Structure (SMILES) | IC50 [nM]
Cc1cc(-c2ncccc2-c2ccc3ncc(C(=O)N[C@H]4CN5CCC4CC5)n3c2)ccc1F [compound 791, (R)-6-(2-(4-Fluoro-3-methylphenyl)pyridin-3-yl)-N-(quinuclidin-3-yl)imidazo[1,2-a]pyridine-3-carboxamide] | 5370
